Laboratory results from patent US12545639B2, “3-substituted phenylamidine compounds, preparation and use thereof” (PI INDUSTRIES LTD., priority 2019, dated 2026).

What was measured:
[1] = test system: Phakopsora pachyrhizi; assay: Phakopsora pachyrhizi test in soybean, preventive, in vivo on plants; conditions: in Glycine max, read-out: Efficacy (% control), disease severity compared to the untreated check
[2] = test system: Pyricularia oryzae; assay: microbe, parasite or virus in culture; assay type: cell-based; conditions: 168 h, read-out: control compared to the untreated check (radial growth)
[3] = test system: Botrytis cinerea; assay: Botrytis cinerea (gray mold) in vitro test, radial growth on potato dextrose agar; assay type: cell-based; conditions: 168 h, 300 ppm in potato dextrose agar, 22° C., 90% relative humidity, seven days, read-out: control compared to the untreated check (radial growth)
[4] = test system: Alternaria solani; assay: Alternaria solani (early blight of tomato/potato) in vitro test, radial growth on potato dextrose agar; assay type: cell-based; conditions: 168 h, 300 ppm in potato dextrose agar, 25° C., 60% relative humidity, seven days, read-out: control compared to the untreated check (radial growth)
[5] = test system: Rhizoctonia solani; assay: Rhizoctonia solani (rice sheath blight/potato black scurf) in vitro test, radial growth on potato dextrose agar; assay type: cell-based; conditions: 168 h, 300 ppm in potato dextrose agar, 25° C., 60% relative humidity, seven days, read-out: control compared to the untreated check (radial growth)
[6] = test system: Septoria lycopersici/Corynespora cassicola (CORYCA); assay: Septoria lycopersici/Corynespora cassicola (CORYCA) (leaf spot of tomato) in vitro test, radial growth on potato dextrose agar; assay type: cell-based; conditions: 168 h, 300 ppm in potato dextrose agar, 25° C., 70% relative humidity, seven days, read-out: control compared to the untreated check (radial growth)

CCN(C)C=Nc1cc(F)cc(Cc2ccc(C#N)cc2)c1C [Compound 202, N′-(3-(4-cyanobenzyl)-5-fluoro-2-methylphenyl)-N-ethyl-N-methylformimidamide]
≥ 70%: pest or weed control at 500 ppm [1] | inhibition of growth at 300 ppm [2] | inhibition of growth at 300 ppm [3] | inhibition of growth at 300 ppm [4] | inhibition of growth at 300 ppm [5]

CCN(C)C=Nc1cc(F)cc(Cc2ccc(Br)c(C)c2)c1C [Compound 232, N′-(3-(4-bromo-3-methylbenzyl)-5-fluoro-2-methylphenyl)-N-ethyl-N-methylformimidamide]
≥ 70%: pest or weed control at 500 ppm [1] | inhibition of growth at 300 ppm [2] | inhibition of growth at 300 ppm [3] | inhibition of growth at 300 ppm [4] | inhibition of growth at 300 ppm [5]

CCc1cccc(Nc2cc(Cl)cc(N=CN(C)CC)c2C)n1 [Compound 243, N′-(5-chloro-3-((6-ethylpyridin-2-yl)amino)-2-methylphenyl)-N-ethyl-N-methylformimidamide]
≥ 70%: inhibition of growth at 300 ppm [2] | inhibition of growth at 300 ppm [4] | inhibition of growth at 300 ppm [5] | inhibition of growth at 300 ppm [6]

CCN(C)C=Nc1cc(F)cc(Nc2cccc(OC)c2)c1C [Compound 30, N-ethyl-N′-(5-fluoro-3-((3-methoxyphenyl)amino)-2-methylphenyl)-N-methylformimidamide]
≥ 70%: pest or weed control at 500 ppm [1] | inhibition of growth at 300 ppm [2] | inhibition of growth at 300 ppm [4] | inhibition of growth at 300 ppm [5] | inhibition of growth at 300 ppm [6]

CCN(C)C=Nc1cc(F)cc(Cc2cc(F)ccc2Cl)c1C [Compound 229, N′-(3-(2-chloro-5-fluorobenzyl)-5-fluoro-2-methylphenyl)-N-ethyl-N-methylformimidamide]
≥ 70%: pest or weed control at 500 ppm [1] | inhibition of growth at 300 ppm [2] | inhibition of growth at 300 ppm [3] | inhibition of growth at 300 ppm [4] | inhibition of growth at 300 ppm [5]

CCN(C)C=Nc1cc(Cl)cc(N(C)c2cccc(F)c2)c1C [Compound 179, N′-(5-chloro-3-((3-fluorophenyl)(methyl)amino)-2-methylphenyl)-N-ethyl-N-methylformimidamide]
≥ 70%: pest or weed control at 500 ppm [1] | inhibition of growth at 300 ppm [2] | inhibition of growth at 300 ppm [3] | inhibition of growth at 300 ppm [4]

CCN(C)C=Nc1cc(F)cc(Cc2cc(F)ccc2C)c1C [Compound 231, N-ethyl-N′-(5-fluoro-3-(5-fluoro-2-methylbenzyl)-2-methylphenyl)-N-methylformimidamide]
≥ 70%: pest or weed control at 500 ppm [1] | inhibition of growth at 300 ppm [2] | inhibition of growth at 300 ppm [3] | inhibition of growth at 300 ppm [4] | inhibition of growth at 300 ppm [5]

CCN(C)C=Nc1cc(Cl)cc(Cc2ccc(F)c(Cl)c2)c1C [Compound 130, N′-(5-chloro-3-(3-chloro-4-fluorobenzyl)-2-methylphenyl)-N-ethyl-N-methylformimidamide]
≥ 70%: pest or weed control at 500 ppm [1] | inhibition of growth at 300 ppm [2] | inhibition of growth at 300 ppm [4] | inhibition of growth at 300 ppm [5] | inhibition of growth at 300 ppm [6]

CCN(C)C=Nc1cc(F)cc(Nc2c(C)cccc2F)c1C [Compound 121, N-ethyl-N′-(5-fluoro-3-((2-fluoro-6-methylphenyl)amino)-2-methylphenyl)-N-methylformimidamide]
≥ 70%: pest or weed control at 500 ppm [1] | inhibition of growth at 300 ppm [2] | inhibition of growth at 300 ppm [4] | inhibition of growth at 300 ppm [6]

CCN(C)C=Nc1cc(Cl)cc(Nc2ccccc2C)c1C [Compound 185, N′-(5-chloro-2-methyl-3-(o-tolylamino)phenyl)-N-ethyl-N-methylformimidamide]
≥ 70%: pest or weed control at 500 ppm [1] | inhibition of growth at 300 ppm [2] | inhibition of growth at 300 ppm [3] | inhibition of growth at 300 ppm [4] | inhibition of growth at 300 ppm [5]

CCN(C)C=Nc1cc(F)cc(N(C)c2cccc(F)c2)c1C [Compound 32, N-ethyl-N′-(5-fluoro-3-((3-fluorophenyl)(methyl)amino)-2-methylphenyl)-N-methylformimidamide]
≥ 70%: pest or weed control at 500 ppm [1] | inhibition of growth at 300 ppm [2] | inhibition of growth at 300 ppm [3] | inhibition of growth at 300 ppm [4]

CCN(C)C=Nc1cc(Cl)cc(N(C)c2cccc(C)c2)c1C [Compound 160, N′-(5-chloro-2-methyl-3-(methyl(m-tolyl)amino)phenyl)-N-ethyl-N-methylformimidamide]
≥ 70%: pest or weed control at 500 ppm [1] | inhibition of growth at 300 ppm [2] | inhibition of growth at 300 ppm [3] | inhibition of growth at 300 ppm [4]

CCN(C)C=Nc1cc(F)cc(NCc2ccc(F)c(C)c2)c1C [Compound 182, N-ethyl-N′-(5-fluoro-3-((4-fluoro-3-methylbenzyl)amino)-2-methylphenyl)-N-methylformimidamide]
≥ 70%: pest or weed control at 500 ppm [1] | inhibition of growth at 300 ppm [2] | inhibition of growth at 300 ppm [3] | inhibition of growth at 300 ppm [4] | inhibition of growth at 300 ppm [5]

CCN(C)C=Nc1cc(OC)cc(Nc2cccc(C(F)(F)F)n2)c1C [Compound 272, N-ethyl-N′-(5-methoxy-2-methyl-3-((6-(trifluoromethyl)pyridin-2-yl)amino)phenyl)-N-methylformimidamide]
≥ 70%: inhibition of growth at 300 ppm [2] | inhibition of growth at 300 ppm [4] | inhibition of growth at 300 ppm [6]

CCN(C)C=Nc1cc(Cl)cc(Nc2ccccc2F)c1C [Compound 165, N′-(5-chloro-3-((2-fluorophenyl)amino)-2-methylphenyl)-N-ethyl-N-methylformimidamide]
≥ 70%: inhibition of growth at 300 ppm [2] | inhibition of growth at 300 ppm [4] | inhibition of growth at 300 ppm [5] | inhibition of growth at 300 ppm [6]

CCN(C)C=Nc1cc(F)cc(N(C)c2ccc(F)cc2F)c1C [Compound 80, N′-(3-((2,4-difluorophenyl)(methyl)amino)-5-fluoro-2-methylphenyl)-N-ethyl-N-methylformimidamide]
≥ 70%: pest or weed control at 500 ppm [1] | inhibition of growth at 300 ppm [2] | inhibition of growth at 300 ppm [3] | inhibition of growth at 300 ppm [4] | inhibition of growth at 300 ppm [5]

CCN(C)C=Nc1cc(F)cc(N(C)c2cccc(C(F)(F)F)n2)c1C [Compound 291, N-ethyl-N′-(5-fluoro-2-methyl-3-(methyl(6-(trifluoromethyl)pyridin-2-yl)amino)phenyl)-N-methylformimidamide]
≥ 70%: inhibition of growth at 300 ppm [2] | inhibition of growth at 300 ppm [4] | inhibition of growth at 300 ppm [6]

CCN(C)C=Nc1cc(OC)cc(Nc2ccccc2OC(F)(F)F)c1C [Compound 300, N-ethyl-N′-(5-methoxy-2-methyl-3-((2-(trifluoromethoxy)phenyl)amino)phenyl)-N-methylformimidamide]
≥ 70%: pest or weed control at 500 ppm [1] | inhibition of growth at 300 ppm [2] | inhibition of growth at 300 ppm [4] | inhibition of growth at 300 ppm [5] | inhibition of growth at 300 ppm [6]

CCN(C)C=Nc1cc(C)cc(Nc2ccc(Cl)cc2F)c1Cl [Compound 134, N′-(2-chloro-3-((4-chloro-2-fluorophenyl)amino)-5-methylphenyl)-N-ethyl-N-methylformimidamide]
≥ 70%: pest or weed control at 500 ppm [1] | inhibition of growth at 300 ppm [2] | inhibition of growth at 300 ppm [3] | inhibition of growth at 300 ppm [5]

CCN(C)C=Nc1cc(C)cc(Nc2cccc(OC)c2)c1Cl [Compound 42, N′-(2-chloro-3-((3-methoxyphenyl)amino)-5-methylphenyl)-N-ethyl-N-methylformimidamide]
≥ 70%: pest or weed control at 500 ppm [1] | inhibition of growth at 300 ppm [2] | inhibition of growth at 300 ppm [3] | inhibition of growth at 300 ppm [4] | inhibition of growth at 300 ppm [5]

CCN(C)C=Nc1cc(C)cc(N(C)c2ccccc2)c1Cl [Compound 10, N′-(2-chloro-5-methyl-3-(methyl(phenyl)amino)phenyl)-N-ethyl-N-methylformimidamide]
≥ 70%: inhibition of growth at 300 ppm [2] | inhibition of growth at 300 ppm [3] | inhibition of growth at 300 ppm [4] | inhibition of growth at 300 ppm [6]

CCN(C)C=Nc1cc(F)cc(Cc2ccc(F)cc2Br)c1C [Compound 230, N′-(3-(2-bromo-4-fluorobenzyl)-5-fluoro-2-methylphenyl)-N-ethyl-N-methylformimidamide]
≥ 70%: pest or weed control at 500 ppm [1] | inhibition of growth at 300 ppm [2] | inhibition of growth at 300 ppm [3] | inhibition of growth at 300 ppm [4] | inhibition of growth at 300 ppm [5]

CCN(C)C=Nc1cc(C)cc(Nc2ccccc2F)c1C [Compound 6, N-ethyl-N′-(3-((2-fluorophenyl)amino)-2,5-dimethylphenyl)-N-methylformimidamide]
≥ 70%: inhibition of growth at 300 ppm [2] | inhibition of growth at 300 ppm [4] | inhibition of growth at 300 ppm [5] | inhibition of growth at 300 ppm [6]

CCN(C)C=Nc1cc(OC)cc(Nc2ccc(F)c(OC)c2)c1C [Compound 276, N-ethyl-N′-(3-((4-fluoro-3-methoxyphenyl)amino)-5-methoxy-2-methylphenyl)-N-methylformimidamide]
≥ 70%: pest or weed control at 500 ppm [1] | inhibition of growth at 300 ppm [2] | inhibition of growth at 300 ppm [4] | inhibition of growth at 300 ppm [5] | inhibition of growth at 300 ppm [6]

CCN(C)C=Nc1cc(C)cc(N(C)c2c(C)cccc2F)c1Cl [Compound 138, N′-(2-chloro-3-((2-fluoro-6-methylphenyl)(methyl)amino)-5-methylphenyl)-N-ethyl-N-methylformimidamide]
≥ 70%: inhibition of growth at 300 ppm [2] | inhibition of growth at 300 ppm [4] | inhibition of growth at 300 ppm [5] | inhibition of growth at 300 ppm [6]
